This is an account of results in patent US20150018546A1, “HETEROCYCLIC COMPOUND HAVING ANTI-HIV ACTIVITY” (TOYAMA CHEMICAL CO., LTD., priority 2012, published 2015).

For orientation: IC50 means the concentration at which inhibition is half-maximal.

The first test deals with HIV-1 (JRCSF). Kind of test: Anti-HIV activity in MaRBLE cells infected with HIV-1 (JRCSF), luciferase readout. In kind it is cell-based. The settings on record: Human immunodeficiency virus 1, 168 h, read-out: Anti-HIV activity IC50. How it is done:
This test was conducted with reference to Journal of Clinical Microbiology, 2007, Vol. 45, p. 477-487.
The anti-HIV activity was evaluated using MaRBLE cells in which a luciferase gene to be expressed under the control of HIV-1 LTR and a CCR5 gene, etc. were introduced in human T lymphocyte-derived HPB-M(a).
A fresh medium or each appropriately diluted test compound was dispensed to 96-well plates to prepare drug solution-containing plates.
The MaRBLE cells were suspended in RPMI1640 containing 10% FCS (fetal calf serum) and penicillin/streptomycin and infected with HIV-1 (JRCSF). Then, the cells were inoculated to the drug solution-containing plates (1×10^5 cells/well). The same number of uninfected cells were inoculated as a control group to the drug solution-containing plates.
After culture at 37° C. for 7 days in a 5% CO2 atmosphere, the intracellular luciferase activity was measured using Steady-Glo Luciferase assay system (Promega Corp.).
The rate of viral proliferation was determined according to the following expression:
Rate of viral proliferation(%)=(A/B)×100
A=(Firefly luciferase activity of the compound-supplemented well)−(Firefly luciferase activity of the uninfected cells)
B=(Firefly luciferase activity of the compound-free well)−(Firefly luciferase activity of the uninfected cells)
IC50 of the compound was calculated by a plot with concentration as the logarithm and the rate of viral proliferation as the real part using the FORECAST function (linear regression method) of Microsoft Office Excel 2003.
As for `CNc1cccc(CNc2cc(=O)n(O)c3ncnc(C)c23)c1` [Example 84, 8-hydroxy-4-methyl-5-((3-(methylamino)benzyl)amino)pyrido[2,3-d]pyrimidin-7(8H)-one], the IC50 came to 76 nM.

Staying with this test, now noted: Human immunodeficiency virus 1, 168 h; MaRBLE cells (human T lymphocyte-derived HPB-M(a)) infected with HIV-1 (JRCSF); 7 days culture; rate of viral proliferation by luciferase activity; read-out: Anti-HIV activity IC50.
`Cc1ncnc2c1c(NCc1cccc(Cl)c1)cc(=O)n2O` [Example 47, 5-((3-chlorobenzyl)amino)-8-hydroxy-4-methylpyrido[2,3-d]pyrimidin-7(8H)-one]: the IC50 came to 59 nM.
On the same count and under the same terms, for `Cc1ncccc1CNc1cc(=O)n(O)c2ncnc(C)c12` [Example 48, 8-hydroxy-4-methyl-5-(((2-methylpyridin-3-yl)methyl)amino)pyrido[2,3-d]pyrimidin-7(8H)-one] the value was 93 nM; for `Cc1ncnc2c1c(NCc1ccc3c(c1)OCO3)cc(=O)n2O` [Example 49], 61 nM.
On the same count and under the same terms, for `Cc1ccc(CNc2cc(=O)n(O)c3ncnc(C)c23)cn1` [Example 50, 8-hydroxy-4-methyl-5-(((6-methylpyridin-3-yl)methyl)amino)pyrido[2,3-d]pyrimidin-7(8H)-one] the value was 110 nM; for `Cc1ncnc2c1c(NCc1cncc(F)c1)cc(=O)n2O` [Example 51, 5-(((5-fluoropyridin-3-yl)methyl)amino)-8-hydroxy-4-methylpyrido[2,3-d]pyrimidin-7(8H)-one], 97 nM; for `Cc1ncnc2c1c(NCc1ccc3c(c1)OCCO3)cc(=O)n2O` [Example 52, 5-(((2,3-dihydro-1,4-benzodioxin-6-yl)methyl)amino)-8-hydroxy-4-methylpyrido[2,3-d]pyrimidin-7(8H)-one], 20 nM.
Still for that read-out and setting: as for `Cc1ncnc2c1c(NC(C)c1cccnc1)cc(=O)n2O` (stereo not drawn) [Example 53, 8-hydroxy-4-methyl-5-((1-(pyridin-3-yl)ethyl)amino)pyrido[2,3-d]pyrimidin-7(8H)-one], the figure is 80 nM.
Consider `Cc1ccncc1CNc1cc(=O)n(O)c2ncnc(C)c12` [Example 54, 8-hydroxy-4-methyl-5-(((4-methylpyridin-3-yl)methyl)amino)pyrido[2,3-d]pyrimidin-7(8H)-one], for which the IC50 came to 110 nM.
Take `Cc1ncnc2c1c(NCc1nc3ccccc3[nH]1)cc(=O)n2O` [Example 55, 5-(((1H-benzimidazol-2-yl)methyl)amino)-8-hydroxy-4-methylpyrido[2,3-d]pyrimidin-7(8H)-one]: the IC50 turned out to be 450 nM.
The same measure, in the same setting: as for `Cc1ncnc2c1c(NCc1ccc(N3CCCCC3)nc1)cc(=O)n2O` [Example 56, 8-hydroxy-4-methyl-5-(((6-(piperidin-1-yl)pyridin-3-yl)methyl)amino)pyrido[2,3-d]pyrimidin-7(8H)-one], the figure is 900 nM.
Regarding `Cc1ncnc2c1c(NCc1cccnc1N1CCOCC1)cc(=O)n2O` [Example 57, 8-hydroxy-4-methyl-5-(((2-(morpholin-4-yl)pyridin-3-yl)methyl)amino)pyrido[2,3-d]pyrimidin-7(8H)-one], the IC50 worked out at 85 nM.
Regarding `Cc1ncnc2c1c(NCc1ccc(OCC(F)(F)F)nc1)cc(=O)n2O` [Example 58, 8-hydroxy-4-methyl-5-(((6-(2,2,2-trifluoroethoxy)pyridin-3-yl)methyl)amino)pyrido[2,3-d]pyrimidin-7(8H)-one], the half-maximal inhibitory concentration (IC50) was 94 nM.
Still for that read-out and setting: for `Cc1ncnc2c1c(NC(c1ccccc1)c1ccccc1)cc(=O)n2O` [Example 59, 5-((diphenylmethyl)amino)-8-hydroxy-4-methylpyrido[2,3-d]pyrimidin-7(81-1)-one] the value was 160 nM; for `O=c1cc(NCc2ccccc2)c2c(-c3ccccc3)ncnc2n1O` [Example 60, 5-(benzylamino)-8-hydroxy-4-phenylpyrido[2,3-d]pyrimidin-7(8H)-one], 190 nM.
On the same count and under the same terms, for `O=c1cc(O)c2c(-c3ccccc3)ncnc2n1O` [Example 61, 5,8-dihydroxy-4-phenylpyrido[2,3-d]pyrimidin-7(8H)-one] the value was 490 nM; for `O=C(NCc1ccccc1)c1ncnc2c1c(O)cc(=O)n2O` [Example 63, N-benzyl-5,8-dihydroxy-7-oxo-7,8-dihydropyrido[2,3-d]pyrimidine-4-carboxamide], 870 nM; for `Cc1ncnc2c1c(O)c(-c1ccccc1)c(=O)n2O` [Example 64, 5,8-dihydroxy-4-methyl-6-phenylpyrido[2,3-d]pyrimidin-7(8H)-one], 350 nM.
Consider `O=c1cc(O)c2c(Cc3ccccc3)ncnc2n1O` [Example 66, 4-benzyl-5,8-dihydroxypyrido[2,3-d]pyrimidin-7(8H)-one], for which the concentration for half-maximal inhibition (IC50) was found to be 560 nM.
The same measure, in the same setting: as for `O=c1c(-c2ccccc2)c(O)c2c(-c3ccccc3)ncnc2n1O` [Example 67, 5,8-dihydroxy-4,6-diphenylpyrido[2,3-d]pyrimidin-7(8H)-one], the figure is 160 nM.
On the same count and under the same terms, as for `Cc1c(O)c2c(-c3ccccc3)ncnc2n(O)c1=O` [Example 68, 5,8-dihydroxy-6-methyl-4-phenylpyrido[2,3-d]pyrimidin-7(8H)-one], the figure is 250 nM.
Same read-out and setting: for `O=C(NCc1ccccc1)c1cc2c(NCc3ccccc3)ncnc2n(O)c1=O` [Example 70, N-benzyl-4-(benzylamino)-8-hydroxy-7-oxo-7,8-dihydropyrido[2,3-d]pyrimidine-6-carboxamide] the value was 790 nM; for `Cc1ncnc2c1c(NCc1ccccc1-c1cccnc1)cc(=O)n2O` [Example 72, 8-hydroxy-4-methyl-5-((2-(pyridin-3-yl)benzyl)amino)pyrido[2,3-d]pyrimidin-7(8H)-one], 150 nM; for `O=c1cc(O)c2c(O)ncnc2n1O` [Example 77, 4,5,8-trihydroxypyrido[2,3-d]pyrimidin-7(8H)-one], 590 nM.
With `O=C(NCc1ccccc1)c1c(O)c2c(NCc3ccccc3)ncnc2n(O)c1=O` [Example 78, N-benzyl-4-(benzylamino)-5,8-dihydroxy-7-oxo-7,8-dihydropyrido[2,3-d]pyrimidine-6-carboxamide], the IC50 stood at 300 nM.
Still for that read-out and setting: as for `O=c1cc(O)c2c(NCc3ccccc3)ncnc2n1O` [Example 79, 4-(benzylamino)-5,8-dihydroxypyrido[2,3-d]pyrimidine-7(8H)-one], the figure is 820 nM; as for `O=c1cc(O)c2c(NCCc3ccccc3)ncnc2n1O` [Example 80, 5,8-dihydroxy-4-((2-phenylethyl)amino)pyrido[2,3-d]pyrimidine-7(8H)-one], 570 nM.
Same read-out and setting: for `O=C(Nc1ccccc1)c1c(O)c2c(Nc3ccccc3)ncnc2n(O)c1=O` [Example 81, 4-anilino-5,8-dihydroxy-7-oxo-N-phenyl-7,8-dihydropyrido[2,3-d]pyrimidine-6-carboxamide] the value was 360 nM; for `Cc1ncnc2c1c(NCc1ccc(C(F)(F)F)nc1)cc(=O)n2O` [Example 83, 8-hydroxy-4-methyl-5-(((6-(trifluoromethyl)pyridin-3-yl)methyl)amino)pyrido[2,3-d]pyrimidine-7(8H)-one], 370 nM.
Same read-out and setting: for `Cc1ncnc2c1c(NCCc1cccnc1)cc(=O)n2O` [Example 85, 8-hydroxy-4-methyl-5-((2-(pyridin-3-yl)ethyl)amino)pyrido[2,3-d]pyrimidin-7(8H)-one] the value was 310 nM.
For the compound `Cc1ncnc2c1c(NCCc1ccncc1)cc(=O)n2O` [Example 86, 8-hydroxy-4-methyl-5-((2-(pyridin-4-yl)ethyl)amino)pyrido[2,3-d]pyrimidin-7(8H)-one], the IC50 was found to be 500 nM.
The same measure, in the same setting: as for `Cc1ncnc2c1c(Nc1ccccc1)cc(=O)n2O` [Example 87, 5-anilino-8-hydroxy-4-methylpyrido[2,3-d]pyrimidin-7(8H)-one], the figure is 81 nM.
Take `Cc1ncnc2c1c(NCc1ccc3cc[nH]c3c1)cc(=O)n2O` [Example 88, 8-hydroxy-5-(((1H-indol-6-yl)methyl)amino)-4-methylpyrido[2,3-d]pyrimidin-7(8H)-one]: the IC50 amounted to 63 nM.
As for `Cc1ncnc2c1c(NCc1cccc3[nH]ccc13)cc(=O)n2O` [Example 89, 8-hydroxy-5-(((1H-indol-4-yl)methyl)amino)-4-methylpyrido[2,3-d]pyrimidin-7(8H)-one], the IC50 is 85 nM.
Turning to `Cc1ncnc2c1c(NC1CCN(C)CC1)cc(=O)n2O` [Example 90, 8-hydroxy-4-methyl-5-((1-methylpiperidin-4-yl)amino)pyrido[2,3-d]pyrimidin-7(8H)-one], the IC50 worked out at 580 nM.
The same measure, in the same setting: as for `Cc1ncnc2c1c(NCCc1ccccn1)cc(=O)n2O` [Example 92, 8-hydroxy-4-methyl-5-((2-(pyridin-2-yl)ethyl)amino)pyrido[2,3-d]pyrimidin-7(8H)-one], the figure is 31 nM; as for `Cc1ncnc2c1c(NCc1ccc3[nH]ccc3c1)cc(=O)n2O` [Example 93, 8-hydroxy-5-(((1H-indol-5-yl)methyl)amino)-4-methylpyrido[2,3-d]pyrimidin-7(8H)-one], 45 nM.
Still for that read-out and setting: as for `Cc1ncnc2c1c(NCc1ccc(-c3ccccc3)nc1)cc(=O)n2O` [Example 94, 8-hydroxy-4-methyl-5-(((6-phenylpyridin-3-yl)methyl)amino)pyrido[2,3-d]pyrimidin-7(8H)-one], the figure is 43 nM.
Still for that read-out and setting: as for `Cc1ncnc2c1c(NCc1cc3ccccc3[nH]1)cc(=O)n2O` [Example 95, 8-hydroxy-5-(((1H-indol-2-yl)methyl)amino)-4-methylpyrido[2,3-d]pyrimidin-7(8H)-one], the figure is 110 nM.
